Source: patent US4803203A, “Phenyl and heterocyclic piperazinyl alkoxy-benzheterocyclic compounds as antipsychotic agents” (Warner-Lambert Company, priority 1987, dated 1989)
Where two headings read alike, the source gives them in different places.

What was measured:
[1] = biological target: T1, dopamine receptors (striatal membranes) (Rattus norvegicus, UniProt P61169); assay: [^3 H]Haloperidol binding assay; parameters: species or system rat (Long-Evans hooded rats); conditions: 0.6 nM [^3 H]-haloperidol, pH 7.6, 25° C., 40 minutes
T1 construct: striatal membranes prepared from Long-Evans hooded rats; from tissue; host or cells: corpus striatum of Long-Evans hooded rats (membrane homogenate)
Method: The antipsychotic activity of representative compounds of the invention was also established by the [^3 H]haloperidol binding assay method which is described in Mol. Pharmacol. 12, 800 (1976) and reports excellent correlation between the amount of binding and clinical potency.
[^3 H]Haloperidol Binding Assay. The relative affinities of compounds for dopamine receptors were evaluated on the basis of their ability to displace [^3 H]-haloperidol from striatal membranes prepared from Long-Evans hooded rats. Rats were decapitated; the brains were removed, and the corpus striata were dissected. The corpus striata were homogenized in 40 volumes of […] Tris buffer (pH 7.6) and centrifuged. Pellets were rehomogenized in 50 volumes of the same buffer and used for the binding assay. Incubations were carried out in 10 ml of […] Tris-HCl buffer (pH 7.6) containing 2 mg/ml of original wet tissue weight of homogenate, 100 μl of test agent or solvent, and 0.6 nM of [^3 H]-haloperidol. Nonspecific binding was determined in the presence of 0.1 μM (+)-butaclamol. Samples were incubated in reciprocating water bath at 25° C. for 40 minutes. Incubation was terminated by rapid filtration under reduced pressure through glass fiber filters (Whatman GF/B). The filters were rinsed three times with 10 ml of Tris-HCl buffer. The filters were placed in 10 ml of scintillation cocktail (Beckman Ready-Solv HP) and shaken for one hour. Radioactivity retained on the filter was determined by liquid scintillation spectrophotometry. IC50 s when determined were calculated from a nonlinear computer curve, fit on the data from […], each done in triplicate.

[2] = tested on: spontaneous locomotion (Swiss-Webster male mice); assay: Inhibition of locomotor activity-screen fall-off test; type: in vivo, mouse (Swiss-Webster male mice); conditions: Mus musculus, ip, 1 h, intraperitoneal, one hour prior to testing, locomotion accumulated for one hour
Method: ANIMALS: Nine unfasted Swiss-Webster male mice (Buckberg Labs) weighing 20-30 g are equally divided into three groups for each drug dose to be tested. That is, data for each dose level was generated by three separate groups of three mice each.
DRUGS: A minimum of three dose levels (10, 30, and 100 mg/kg) are tested for each drug. Treatments are administered intraperitoneally one hour prior to testing. All dosages are calculated as parent compound. Compounds are dissolved or suspended in 0.2% methocel. Control animals are injected with methocel.
TESTING: A two-part testing procedure is started one hour postinjection. First, the screen test is performed (see Pharmac Biochem Behav 6, 351-353, 1977). Briefly, this test consists of placing mice on individual wire screens which are then rotated 180° at the start of a 60-second observation period. The number of mice falling off the inverted screen is recorded.
Immediately following the screen test, the final phase of testing is initiated by placing each group of three mice in one actophotometer (Life Sciences, 22, 1067-1076, 1978). The actophotometer consists of a cylindrical chamber whose center is occupied by another cylinder which contains the illumination for six photocells located on the perimeter of the chamber. Six light-beam interruptions equal one count. Locomotor activity is recorded by computer at ten-minute intervals for 60 minutes.
DATA: The data obtained from the screen test are expressed as percent of mice falling off the screen. Data derived from locomotor activity of drug-treated mice are compared to the activity of vehicle-treated animals and are expressed as percent inhibition of spontaneous locomotion. All percentages reported for inhibition of locomotion are based upon data accumulated for one hour. Both phases of testing are graded: A=60-100%; C=31-59%; and N=0-30%. An overall dose rating is obtained by the following criteria.
All other combinations = N
Utilizing this procedure, an overall dose rating of A was obtained for the noted compounds at the indicated dose, ED50 s, as reported in Table 1.

[3] = rat striatal membranes, read-out: ^3 H-Haloperidol Binding IC50
[4] = ^3 H-Haloperidol Binding IC50, rat striatal membranes

T1 sequence (P61169 whole entry): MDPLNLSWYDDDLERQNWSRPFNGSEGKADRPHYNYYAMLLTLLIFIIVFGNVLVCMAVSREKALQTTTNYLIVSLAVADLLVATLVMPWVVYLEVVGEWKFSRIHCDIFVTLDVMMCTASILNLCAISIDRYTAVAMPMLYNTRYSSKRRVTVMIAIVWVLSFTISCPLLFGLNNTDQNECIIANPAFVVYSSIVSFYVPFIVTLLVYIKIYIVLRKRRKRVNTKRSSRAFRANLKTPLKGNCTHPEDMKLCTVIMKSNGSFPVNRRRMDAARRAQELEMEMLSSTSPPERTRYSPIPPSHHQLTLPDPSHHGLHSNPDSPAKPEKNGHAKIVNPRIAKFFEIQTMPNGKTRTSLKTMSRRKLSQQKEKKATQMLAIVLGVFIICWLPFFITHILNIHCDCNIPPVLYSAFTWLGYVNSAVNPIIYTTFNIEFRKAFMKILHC

| SMILES | IC50 [1, 3] [nM] | ED50 [2] [mg/kg] | IC50 [1, 4] [nM] |
| --- | --- | --- | --- |
| CC1(C)CC(=O)c2ccc(OCCCN3CCN(c4ccccc4)CC3)cc2O1 [Example 1, 2,3-Dihydro-2,2-dimethyl-7-(3-(4-phenyl)-1-piperizinyl)propoxy-4H-benzopyran-4-one] | 300 | 5.9 | – |
| CC1(C)CC(=O)c2ccc(OCCCN3CC=C(c4ccccc4)CC3)cc2O1 [Example 2A, 7-[3-[3,6-dihydro-4-phenyl-1(2H)-pyridinyl)propoxy]-2,3-dihydro-2,2-dimethyl-4H-benzopyran-4-one] | – | 4.8 | < 100 |
| O=C1COc2cc(OCCCN3CCN(c4ccccc4)CC3)ccc21 [Example 2B, 6-[3-(4-phenyl-1-piperazinyl)propoxy]-3-(2H)-benzofuranone] | 100 | 3.7 | – |
| O=C1COc2cc(OCCCN3CC=C(c4ccccc4)CC3)ccc21 [Example 2C] | – | 3.5 | < 100 |
| c1ccc(N2CCN(CCCOc3ccc4c(c3)OCCC4)CC2)cc1 [Example 2D, 1-[3-[(3,4-dihydro-2H-1-benzopyran-7-yl)oxy]propyl]-4-phenylpiperazine] | 70 | 2.7 | – |
| O=C1COc2ccc(OCCCN3CCN(c4ncccn4)CC3)cc2N1 [Example 2E, 6-[3-[4-(2-pyrimidinyl)-1-piperazinyl]propoxy]-2H-1,4-benzoxazine-3(4H)-one] | 1000 | 1 | – |
| C1=C(c2ccccc2)CCN(CCCOc2cccc3[nH]ccc23)C1 [Example 2F, 4-[3-(3,6-dihydro-4-phenyl-1(2H)-pyridinyl)propoxy]-1H-indole] | – | 2.5 | 40 |
| C1=C(c2ccccc2)CCN(CCCCOc2cccc3[nH]ccc23)C1 [Example 2G, 4-[4-(3,6-dihydro-4-phenyl-1(2H)-pyridinyl)butoxy]-1H-indole] | – | 1.4 | 50 |
| C1=C(c2ccccc2)CCN(CCCCOc2ccc3[nH]ccc3c2)C1 [Example 2H, 5-[4-(3,6-dihydro-4-phenyl-1(2H)-pyridinyl)butoxy]-1H-indole] | – | 0.5 | 10 |
| C1=C(c2ccccc2)CCN(CCCOc2ccc3cc[nH]c3c2)C1 [Example 2I, 6-[3-(3,6-dihydro-4-phenyl-1(2H)-pyridinyl)propoxy]-1H-indole] | – | 2.8 | 100 |
| c1cnc(N2CCN(CCCOc3ccc4cc[nH]c4c3)CC2)nc1 [Example 2J, 6-[3-[4-(2-pyrimidinyl)-1-piperazinyl]propoxy]-1H-indole] | 200 | 3.2 | – |
| c1ccc(N2CCN(CCCOc3ccc4ncccc4c3)CC2)cc1 [Example 2K, 6-[3-(4-phenyl-1-piperazinyl)propoxy]-quinoline] | 90 | 0.5 | – |
| c1cnc(N2CCN(CCCCOc3ccc4ncccc4c3)CC2)nc1 [Example 2L, 6-[4-[4-(2-pyrimidinyl)-1-piperazinyl]butoxy]quinoline] | 50 | 0.9 | – |
| C1=C(c2ccccc2)CCN(CCCCOc2ccc3ncccc3c2)C1 [Example 2M, 6-[4-(3,6-dihydro-4-phenyl-1(2H)-pyridinyl)butoxy]quinoline] | – | 1.1 | 17 |
| c1cnc(N2CCN(CCCCOc3cccc4ncccc34)CC2)nc1 [Example 2N, 5-[4-[4-(2-pyrimidinyl)-1-piperazinyl]butoxy]quinoline] | 180 | – | – |
| C1=C(c2ccccc2)CCN(CCCOc2cccc3cnccc23)C1 [Example 2O, 5-[3-(3,6-dihydro-4-phenyl-1(2H)-pyridinyl)propoxy]isoquinoline] | – | 0.18 | 33 |
| c1ccc(N2CCN(CCCOc3cccc4cnccc34)CC2)nc1 [Example 2P, 5-[3-[4-(2-pyridinyl)-1-piperazinyl]propoxy]isoquinoline] | 645 | 3 | – |
| c1ccc(N2CCN(CCCOc3cccc4cnccc34)CC2)cc1 [Example 2Q, 5-[3-(4-phenyl-1-piperazinyl)propoxy]isoquinoline] | 206 | 0.29 | – |
| c1cnc(N2CCN(CCCOc3cccc4cnccc34)CC2)nc1 [Example 2R, 5-[3-[4-(2-pyrimidinyl)-1-piperazinyl]propoxy]isoquinoline] | 947 | 19.5 | – |
| c1cnc(N2CCN(CCCCOc3cccc4ncccc34)CC2)nc1 [Example 2S, 5-[4-[4-(2-pyrimidinyl)-1-piperazinyl]butoxy]quinoline] | 184 | 7.7 | – |
| c1ccc(N2CCN(CCCOc3ccc4cccnc4c3)CC2)nc1 [Example 2T, 7-[3-[4-(2-pyridinyl)-1-piperazinyl]propoxy]quinoline] | 230 | 0.17 | – |
| c1ccc(N2CCN(CCCOc3ccc4cccnc4c3)CC2)cc1 [Example 2U, 7-[3-(4-phenyl-1-piperazinyl)propoxy]quinoline] | 50 | 0.1 | – |
| c1cnc(N2CCN(CCCOc3ccc4cccnc4c3)CC2)nc1 [Example 2V, 7-[3-[4-(2-pyrimidinyl)-1-piperazinyl]propoxy]quinoline] | 900 | 1 | – |
| Oc1nccc2c(OCCCN3CCN(c4ccccn4)CC3)cccc12 [Example 2W, 5-[3-[4-(2-pyridinyl)-1-piperazinyl]propoxy]-1-isoquinolinol] | 651 | 6.1 | – |
| O=C1NCCc2c(OCCCN3CCN(c4ccccn4)CC3)cccc21 [Example 2X] | 431 | 4.4 | – |
| c1ccc(N2CCN(CCCOc3ccc4[nH]cnc4c3)CC2)cc1 [Example 3, 5-[3-(4-Phenylpiperazinyl)propyloxy]-1H-benzimidazole] | – | 4.9 | 120 |
| O=C1Cc2cc(OCCCN3CCN(c4ccccc4)CC3)ccc2N1 [Example 4, 1,3-dihydro-5-[3-(4-phenyl-1-piperazinyl)propoxy]-2H-indole-2-one] | 160 | 0.4 | – |
| c1ccc(N2CCN(CCCOc3ccc4ccoc4c3)CC2)cc1 [Example 5, 1-[3-[6-Benzofuranyloxy]propyl]-4-phenylpiperazine] | 500 | 8.8 | – |
